{"source": "patent US11370841B2", "about": "“Methods of treating fibroblast growth factor 19-mediated cancers and tumors” (NGM Biopharmaceuticals, Inc., priority 2016, dated 2022)", "key": {"[1]": {"test_system": "primary human hepatocytes", "experiment": "In vitro pSTAT3 activation in primary human hepatocytes", "format": "cell-based", "conditions": "purified primary human hepatocytes, 50 ng/ml", "experimental": "In vitro pSTAT3 activation. Primary human hepatocytes were isolated from consenting donors using a modified collagenase/pronase method (BioReclamation/IVT). Cells were diluted in attachment media (DMEM supplemented with 2 mM glutamine, 100 unit/ml penicillin, 100 unit/ml streptomycin, and 10% FBS), and cells were plated on collagen-coated 6-well plate (Becton Dickinson). Four hours later, cells were changed into William's E media containing dexamethasone/T3/insulin and cultured for 16 hours at 37° C. When indicated, 50 ng/ml FGF19 protein or 50 ng/ml human IL-6 (Peprotech) were added.\nCell extracts were prepared in 50 mM Tris-Cl, PH 7.2, 150 mM NaCl, 1% NP-40, 0.1% SDS, 0.5% sodium deoxycholate supplemented with a protease inhibitor cocktail (Roche) and phosphatase inhibitors (Sigma, phosphatase inhibitor cocktail set 2 and set 3), and protein concentrations were determined by BCA protein assay (Thermo Scientific).\nImmunoblotting. […] Membranes were washed in TBST extensively, and bound proteins were detected with horseradish peroxidase-conjugated goat-anti-mouse IgG or goat-anti-rabbit IgG antibodies (GE Healthcare) for 1 hour at room temperature. […]\nTo investigate an in vitro direct effect of FGF19 on STAT3 activation in isolated hepatocytes, pSTAT3^Y705 levels in primary cultures of hepatocytes upon FGF19 stimulation were analyzed by western blotting. […]"}, "[2]": {"test_system": "FGF19-mediated hepatocellular carcinoma", "experiment": "AAV-FGF19 tumorigenicity and metabolic study in Stat3f/f and Stat3ΔHep mice", "conditions": "for Reduction in hepatic mRNA levels of Cyp7a1 / Reduction in hepatic mRNA levels of Cyp8b: AAV-expressed FGF19, 12 months", "experimental": "Hepatocyte-specific Stat3 deletion. […] Stat3^f/f mice injected with AAV-TBG-Cre alone served as Stat3^ΔHep controls. Stat3^f/f mice were used as wild type controls. AAV-TBG-Cre drives Cre recombinase expression under TBG promoter, which allows hepatocyte-specific expression.\n52 weeks after AAV injection, mice were euthanized and examined for liver tumor formation. The maximum diameter of liver tumor nodules in each mouse was measured with a caliper and total numbers of tumor nodules per liver were recorded. Livers were weighed and collected for histological examination or gene expression analysis.\nGlucose and body composition. Blood concentrations of ad libitum fed glucose were measured in conscious animals from a hand-held glucometer (Accu-check, Roche Diagnostics) using tail vein blood. Body weight and body composition (EcoMRI whole body composition analyzer) were measured at designated times. Mice were euthanized 52 weeks post-AAV administration. Macroscopic liver tumors were counted and the maximal diameter of the tumors recorded.\nGene expression analysis.\n(§1) Blood parameters. Blood was collected from tail vein in un-anesthetized animals using microvette serum gel tubes (Sarstedt) for measurements of glucose, insulin, ALT, AST, ALP, bile acids, and FGF19 concentrations. Serum samples were prepared by centrifugation at 4° C. for 10 minutes at 6000 g after clotting at room temperature for 30 minutes. For HbA1c measurements, whole blood was collected after euthanasia by cardiac puncture into EDTA-tubes and quickly inverted multiple times. HbA1c (from whole blood samples) and liver enzyme (from serum samples) levels were measured on Cobas Integra 400 Clinical Analyzer (Roche Diagnostics). Serum FGF19 level was determined by FGF19 enzyme-linked immunosorbent assays (ELISA) (Biovendor). Serum insulin was assessed with ELISA kits from ALPCO. Concentrations of total bile acids in serum were determined using a 3β-hydroxysteroid dehydrogenase method (Diazyme). All assays were performed according to the manufacturers' instructions.\n(§2) Histology and immunohistochemistry. Livers were fixed in 10% neutral-buffered formalin and embedded in paraffin. 5 μm sections were deparaffinized in xylenes, rehydrated sequentially in graded ethanol (100%, 95%, 80%, 70%, 50%, 2 minutes each). Hematoxylin and eosin staining was performed using standard methods. For immunohistochemical studies, liver sections were subjected to antigen retrieval in a citrate-based Antigen Unmasking Solution (Vector Laboratories), and incubated for 30 minutes with 3% H2O2 at room temperature to block endogenous peroxidase activity. Sections were stained with primary antibodies against glutamine synthetase (Thermo Fisher), BrdU, PCNA, or STAT3 in PBS containing 10% goat serum. Biotinylated secondary antibodies, ABC-HRP reagent (Vectastain ABC kit, #PK-6100, Vector Laboratories) and di-amine-benzidine (DAB) colorimetric peroxidase substrate (#SK-4100, Vector Laboratories) were used for detection. When indicated, sections were counterstained with hematoxylin. Digital imaging microscopy was performed using a Leica DM4000 microscope equipped with DFC500 camera and a scanning platform (Leica). Images for the entire liver section were acquired by stitching 70-96 fields together using Surveyor program for morphometric analysis. Glutamine synthetase-positive tumor areas were quantified using Measure/Count/Area tool from ImagePro software."}, "[3]": {"test_system": "FGF19-mediated HCC", "experiment": "Tumorigenicity study in db/db mice (AAV-SOCS3, tofacitinib)", "format": "in vivo", "experimental": "as §1, §2\nTumorigenicity study in db/db mice. 11 to 12 week old db/db mice received a single intravenous dose of AAV containing either FGF19 or a control gene (green fluorescent protein). Body weight and blood glucose were monitored. […] Mice were euthanized 24 weeks post-AAV administration and examined for liver tumor formation by gross appearance and histology."}, "[4]": {"test_system": "hepatic mRNA levels", "experiment": "Hepatic gene expression in FGF19-treated db/db mice (qRT-PCR)"}, "[5]": {"conditions": "Stat3f/f mice, AAV-expressed FGF19"}, "[6]": {"conditions": "FGF19 protein 1 mg/kg i.p., 2 hours"}}, "data": [{"substance": "FGF19: Fibroblast growth factor 19, mature human 194 amino acid polypeptide (SEQ ID NO: 1); recombinant protein or AAV-expressed", "values": [{"measurement": "STAT3 activation (pSTAT3 Y705)", "setting": "[1]", "value": "lack of STAT3 activation"}, {"measurement": "Body weight", "setting": "[2]; [5]", "value": "weight-lowering"}, {"measurement": "Glucose", "setting": "[2]; [5]", "value": "glucose-lowering"}, {"measurement": "Reduction in hepatic mRNA levels of Cyp7a1", "setting": "[2]; Stat3f/f mice", "value": 77, "unit": "%"}, {"measurement": "Reduction in hepatic mRNA levels of Cyp8b", "setting": "[2]; Stat3f/f mice", "value": 95, "unit": "%"}, {"measurement": "Reduction in hepatic mRNA levels of Cyp7a1", "setting": "[2]; Stat3ΔHep mice", "value": 87, "unit": "%"}, {"measurement": "Reduction in hepatic mRNA levels of Cyp8b", "setting": "[2]; Stat3ΔHep mice", "value": 88, "unit": "%"}, {"measurement": "HbA1c", "setting": "[3]; AAV-expressed FGF19, in the absence or presence of SOCS3", "value": "normalized"}, {"measurement": "Blood glucose levels", "setting": "[3]; AAV-expressed FGF19, irrespective of tofacitinib treatment", "value": "normalized"}, {"measurement": "Hepatic mRNA levels of IL-6", "setting": "[4]; [6]", "value": "increased significantly"}, {"measurement": "RNA levels of IL-11, LIF, OSM, CNTF and CTF1", "setting": "[4]; [6]", "value": "remained unchanged or undetectable"}, {"measurement": "Hepatic Cyp7a1 mRNAs", "setting": "[4]; acute FGF19 treatment", "value": "efficiently suppressed"}]}]}
